# Source: paper PMC2009897, “Comparison of mutagenesis and malignant transformation by dihydrodiols from benz[a]anthracene and 7,12-dimethylbenz[a]anthracene” (British Journal of Cancer, 1979)
# Where “and” joins values, the source holds several entries; their conditions need not be identical. Equal entries are not always repeated. Where two headings read alike, the source gives them in different places.
# Experiments:
# [1] = system: M2 mouse fibroblasts; experiment: Plating efficiency of M2 mouse fibroblasts; type: cell-based
# [2] = system: V79 cells; parameters: method as in Slaga et al., 1978; conditions: presence of mono-oxygenase systems; ref Slaga et al., 1978; cited from earlier work
# [3] = system: V79 Chinese hamster cells; experiment: Cytotoxicity (plating efficiency) in V79 Chinese hamster cells; type: cell-based
# [4] = system: mouse skin; conditions: cited from earlier work
# [5] = system: Salmonella typhimurium TA100; conditions: cited from earlier work; for Mutagenic activity in Salmonella typhimurium TA100: presence of mono-oxygenase systems, ref Wood et al., 1976; for Microsome-mediated mutagenic activity in S. typhimurium TA100: ref Malaveille et al., 1978
# [6] = system: newborn mice; parameters: method as in Wislocki et al., 1976; conditions: ref Wislocki et al., 1976; cited from earlier work
# [7] = system: M2 mouse fibroblasts
# [8] = system: M2 mouse fibroblasts; conditions: cited from earlier work
# [9] = system: V79 Chinese hamster cells
# [10] = system: V79 Chinese hamster cells; conditions: ref Wood et al. (1977a); cited from earlier work
# [11] = system: C3H/HeJ mice; conditions: 106 cells from 2 clones transformed by the compound, 3 mice/clone (6 mice), five weeks after injection
structure (smiles),measurement,setting,value
"O[C@@H]1C=Cc2c(ccc3cc4ccccc4cc23)[C@H]1O (relative stereo) [trans-3,4-Dihydro-3,4-dihydroxy BA, trans-3,4-dihydro-3,4-dihydroxy-BA]",Plating efficiency (%) in M2 cells,"[1]; 2.5 µg/ml, 24 h, Table I",50%
same,Plating efficiency (%) in M2 cells,"[1]; 5.0 µg/ml, 24 h, Table I",38%
same,Plating efficiency (%) in M2 cells,"[1]; 10.0 µg/ml, 24 h, Table I",12%
same,Mutagenic activity in V79 cells,[2],active
same,Plating efficiency (%) in V79 cells,"[3]; 2.5 µg/ml, 3 h, Table I",93%
same,Plating efficiency (%) in V79 cells,"[3]; 5.0 µg/ml, 3 h, Table I",84%
same,Plating efficiency (%) in V79 cells,"[3]; 10.0 µg/ml, 3 h, Table I",56%
same,Initiator of tumours on mouse skin,"[4]; ref Wood et al., 1977b, Slaga et al., 1978",highly active
same,Mutagenic activity in Salmonella typhimurium TA100,[5],active
same,Inducer of tumours in newborn mice,[6],highly active
"O[C@@H]1c2ccccc2-c2cc3ccccc3cc2[C@H]1O (relative stereo) [trans-5,6-Dihydro-5,6-dihydroxy BA, trans-5,6-Dihydro-5,6-dihydroxy-BA]",Plating efficiency (%) in M2 cells,"[1]; 2.5 µg/ml, 24 h, Table I",44%
same,Plating efficiency (%) in M2 cells,"[1]; 5.0 µg/ml, 24 h, Table I",42%
same,Plating efficiency (%) in M2 cells,"[1]; 10.0 µg/ml, 24 h, Table I",40%
same,Plating efficiency (%) in V79 cells,"[3]; 2.5 µg/ml, 3 h, Table I",85%
same,Plating efficiency (%) in V79 cells,"[3]; 5.0 µg/ml, 3 h, Table I",74%
same,Plating efficiency (%) in V79 cells,"[3]; 10.0 µg/ml, 3 h, Table I",59%
"Cc1c2c(c(C)c3c1ccc1ccccc13)[C@@H](O)[C@H](O)C=C2 (relative stereo) [trans-10,11-Dihydro-10,11-dihydroxy-DMBA, trans-10,11-dihydro-10,11-dihydroxy-DMBA]",Plating efficiency (%) in M2 cells,"[1]; 0.25 µg/ml, 24 h, Table I",30%
same,Plating efficiency (%) in M2 cells,"[1]; 0.5 µg/ml, 24 h, Table I",26%
same,Plating efficiency (%) in M2 cells,"[1]; 1.0 µg/ml, 24 h, Table I",11%
same,Plating efficiency (%) in V79 cells,"[3]; 0.25 µg/ml, 3 h, Table I",76%
same,Plating efficiency (%) in V79 cells,"[3]; 0.5 µg/ml, 3 h, Table I",68%
same,Plating efficiency (%) in V79 cells,"[3]; 1.0 µg/ml, 3 h, Table I",44%
same,Induction of malignant transformation in M2 mouse fibroblasts (result in words),[7],inactive in both test systems
same,Transformed foci/103 survivors,[7],0
"Cc1c2c(c(C)c3c1ccc1ccccc13)C=C[C@@H](O)[C@@H]2O (relative stereo) [trans-8,9-Dihydro-8,9-dihydroxy-DMBA, trans-8,9-dihydro-8,9-dihydroxy-DMBA]",Plating efficiency (%) in M2 cells,"[1]; 0.25 µg/ml, 24 h, Table I",26%
same,Plating efficiency (%) in M2 cells,"[1]; 0.5 µg/ml, 24 h, Table I",22%
same,Plating efficiency (%) in M2 cells,"[1]; 1.0 µg/ml, 24 h, Table I",7%
same,Plating efficiency (%) in V79 cells,"[3]; 0.25 µg/ml, 3 h, Table I",62%
same,Plating efficiency (%) in V79 cells,"[3]; 0.5 µg/ml, 3 h, Table I",45%
same,Plating efficiency (%) in V79 cells,"[3]; 1.0 µg/ml, 3 h, Table I",32%
same,"Activity in M2 cells (malignant transformation), earlier observations",[8],active
same,Microsome-mediated mutagenic activity in S. typhimurium TA100,[5],some mutagenic activity
same,Induction of malignant transformation in M2 mouse fibroblasts (result in words),[7],induced mutations in V79 cells and malignant transformation in M2 mouse fibroblasts
same,Malignant transformation in M2 cells compared with the parent hydrocarbon,[7],more active than the parent hydrocarbon
"Cc1c2ccccc2c(C)c2c1ccc1ccccc12 [DMBA, 7,12-dimethylbenz[a]anthracene]",Plating efficiency (%) in M2 cells,[1],26% and 24%
same,Plating efficiency (%) in V79 cells,[3],63% and 39%
same,Induction of mutations to 8-azaguanine resistance in V79 cells (result in words),[9],inactive
same,Induction of malignant transformation in M2 mouse fibroblasts (result in words),[7],some activity
"O[C@@H]1C=Cc2cc3c(ccc4ccccc43)cc2[C@H]1O (relative stereo) [trans-8,9-Dihydro-8,9-dihydroxy-BA, trans-8,9-dihydro-8,9-dihydroxy-BA]",Plating efficiency (%) in M2 cells,"[1]; 2.5 µg/ml, 24 h, Table I",44%
same,Plating efficiency (%) in M2 cells,"[1]; 5.0 µg/ml, 24 h, Table I",39%
same,Plating efficiency (%) in M2 cells,"[1]; 10.0 µg/ml, 24 h, Table I",30%
same,Plating efficiency (%) in V79 cells,"[3]; 2.5 µg/ml, 3 h, Table I",57%
same,Plating efficiency (%) in V79 cells,"[3]; 5.0 µg/ml, 3 h, Table I",54%
same,Plating efficiency (%) in V79 cells,"[3]; 10.0 µg/ml, 3 h, Table I",53%
"OC1c2cc3ccc4ccccc4c3cc2C2OC2C1O (single isomer, unassigned) [syn-isomer, benz[a]anthracene 8,9-diol 10,11-oxide]",Plating efficiency (%) in M2 cells,"[1]; 1.2 µg/ml, 24 h, Table II",47%
same,Plating efficiency (%) in M2 cells,"[1]; 2.5 µg/ml, 24 h, Table II",49%
same,Plating efficiency (%) in M2 cells,"[1]; 5.0 µg/ml, 24 h, Table II",30%
same,Plating efficiency (%) in V79 cells,"[3]; 0.6 µg/ml, 3 h, Table II",56%
same,Plating efficiency (%) in V79 cells,"[3]; 1.2 µg/ml, 3 h, Table II",50%
same,Plating efficiency (%) in V79 cells,"[3]; 2.5 µg/ml, 3 h, Table II",49%
same,Plating efficiency (%) in V79 cells,"[3]; 5.0 µg/ml, 3 h, Table II",48%
same,Induction of mutations to 8-azaguanine resistance in V79 cells (result in words),[9],mutagenic
same,Induction of malignant transformation in M2 mouse fibroblasts (result in words),[7],inactive
"O[C@@H]1C=Cc2ccc3cc4ccccc4cc3c2[C@H]1O (relative stereo) [trans-1,2-Dihydro-1,2-dihydroxy BA, trans-1,2-Dihydro-1,2-dihydroxy-BA]",Plating efficiency (%) in M2 cells,"[1]; 1.2 µg/ml, 24 h, Table I",44%
same,Plating efficiency (%) in M2 cells,"[1]; 2.5 µg/ml, 24 h, Table I",40%
same,Plating efficiency (%) in M2 cells,"[1]; 5.0 µg/ml, 24 h, Table I",37%
same,Plating efficiency (%) in M2 cells,"[1]; 10.0 µg/ml, 24 h, Table I",10%
same,Mutagenic activity in V79 cells,[2],not found to be active
same,Plating efficiency (%) in V79 cells,"[3]; 1.2 µg/ml, 3 h, Table I",99%
same,Plating efficiency (%) in V79 cells,"[3]; 2.5 µg/ml, 3 h, Table I",95%
same,Plating efficiency (%) in V79 cells,"[3]; 5.0 µg/ml, 3 h, Table I",89%
same,Plating efficiency (%) in V79 cells,"[3]; 10.0 µg/ml, 3 h, Table I",55%
same,Mutagenic activity in Salmonella typhimurium TA100,[5],not found to be active
"O[C@@H]1C=Cc2cc3ccc4ccccc4c3cc2[C@H]1O (relative stereo) [trans-10,11-Dihydro-10,11-dihydroxy-BA, trans-10,11-dihydro-10,11-dihydroxy-BA]",Plating efficiency (%) in M2 cells,"[1]; 2.5 µg/ml, 24 h, Table I",44%
same,Plating efficiency (%) in M2 cells,"[1]; 5.0 µg/ml, 24 h, Table I",37%
same,Plating efficiency (%) in M2 cells,"[1]; 10.0 µg/ml, 24 h, Table I",29%
"OC1c2cc3ccc4ccccc4c3cc2C2OC2C1O (single isomer, unassigned) [anti-isomer, benz[a]anthracene 8,9-diol 10,11-oxide]",Plating efficiency (%) in M2 cells,"[1]; 1.2 µg/ml, 24 h, Table II",26%
same,Plating efficiency (%) in M2 cells,"[1]; 2.5 µg/ml, 24 h, Table II",12%
same,Plating efficiency (%) in M2 cells,"[1]; 5.0 µg/ml, 24 h, Table II",6%
same,Plating efficiency (%) in V79 cells,"[3]; 0.6 µg/ml, 3 h, Table II",57%
same,Plating efficiency (%) in V79 cells,"[3]; 1.2 µg/ml, 3 h, Table II",48%
same,Plating efficiency (%) in V79 cells,"[3]; 2.5 µg/ml, 3 h, Table II",41%
same,Plating efficiency (%) in V79 cells,"[3]; 5.0 µg/ml, 3 h, Table II",35%
same,"Induction of mutations in V79 cells, anti versus syn isomer",[10],more active than the syn
"Cc1c2ccccc2c(C)c2c3c(ccc12)[C@@H](O)[C@H](O)C=C3 (relative stereo) [trans-3,4-Dihydro-3,4-dihydroxy-DMBA, trans-3,4-dihydro-3,4-dihydroxy-DMBA]",Plating efficiency (%) in M2 cells,"[1]; 0.12 µg/ml, 24 h, Table I",31%
same,Plating efficiency (%) in M2 cells,"[1]; 0.25 µg/ml, 24 h, Table I",26%
same,Plating efficiency (%) in M2 cells,"[1]; 0.5 µg/ml, 24 h, Table I",25%
same,Plating efficiency (%) in M2 cells,"[1]; 1.0 µg/ml, 24 h, Table I",15%
same,Plating efficiency (%) in V79 cells,"[3]; 0.12 µg/ml, 3 h, Table I",67%
same,Plating efficiency (%) in V79 cells,"[3]; 0.25 µg/ml, 3 h, Table I",58%
same,Plating efficiency (%) in V79 cells,"[3]; 0.5 µg/ml, 3 h, Table I",50%
same,Plating efficiency (%) in V79 cells,"[3]; 1.0 µg/ml, 3 h, Table I",43%
same,Initiator of tumours on mouse skin,"[4]; ref I. Chouroulinkov, personal communication",acts as an initiator of tumours on mouse skin
same,Microsome-mediated mutagenic activity in S. typhimurium TA100,[5],high
same,Animals that developed malignant fibrosarcomas,[11],6 animals
same,Induction of malignant transformation in M2 mouse fibroblasts (result in words),[7],induced mutations in V79 cells and malignant transformation in M2 mouse fibroblasts
same,Malignant transformation in M2 cells compared with the parent hydrocarbon,[7],more active than the parent hydrocarbon
"c1ccc2cc3c(ccc4ccccc43)cc2c1 [BA, benz[a]anthracene]",Plating efficiency (%) in M2 cells,[1],32% and 29%
same,Plating efficiency (%) in V79 cells,[3],82% and 70%
same,Induction of mutations to 8-azaguanine resistance in V79 cells (result in words),[9],inactive
"Cc1c2c(c(C)c3ccccc13)[C@@H](O)[C@H](O)c1ccccc1-2 (relative stereo) [trans-5,6-Dihydro-5,6-dihydroxy-DMBA, trans-5,6-dihydro-5,6-dihydroxy-DMBA]",Plating efficiency (%) in M2 cells,"[1]; 1.0 µg/ml, 24 h, Table I",28%
same,Plating efficiency (%) in M2 cells,"[1]; 5.0 µg/ml, 24 h, Table I",28%
same,Plating efficiency (%) in M2 cells,"[1]; 10.0 µg/ml, 24 h, Table I",20%
same,Plating efficiency (%) in V79 cells,"[3]; 1.0 µg/ml, 3 h, Table I",80%
same,Plating efficiency (%) in V79 cells,"[3]; 5.0 µg/ml, 3 h, Table I",73%
same,Plating efficiency (%) in V79 cells,"[3]; 10.0 µg/ml, 3 h, Table I",57%
same,Induction of malignant transformation in M2 mouse fibroblasts (result in words),[7],inactive in both test systems
same,Transformed foci/103 survivors,[7],0
same,Transformed foci/dishes treated,[7],0/10
